# Key:
# [1] = biological target: T1, human NLRP3 (Homo sapiens (Human), UniProt Q96P20); assay: Scintillation Proximity (SPA) NLRP3 Assay: displacement of 3H-MCC950; type: binding
# [2] = biological target: T1, human NLRP3; assay: Human Whole Blood (hWB) NLRP3 Assay (LPS/ATP, IL-1β); type: cell-based
# [3] = biological target: T1, human NLRP3; assay: Human PBMC NLRP3 Assay (LPS priming, ATP stimulation, cytokine measurement); type: cell-based
# [4] = displacement of 3H-MCC950, read-out: SPA IC50
# [5] = hWB IC50, human whole blood, LPS/ATP, IL-1β
# [6] = PBMC IC50, human PBMC, LPS priming, ATP stimulation
# [7] = human PBMC, LPS priming, ATP stimulation, read-out: PBMC IC50
# [8] = human whole blood, LPS/ATP, IL-1β, read-out: hWB IC50
# T1 sequence (Q96P20 whole entry): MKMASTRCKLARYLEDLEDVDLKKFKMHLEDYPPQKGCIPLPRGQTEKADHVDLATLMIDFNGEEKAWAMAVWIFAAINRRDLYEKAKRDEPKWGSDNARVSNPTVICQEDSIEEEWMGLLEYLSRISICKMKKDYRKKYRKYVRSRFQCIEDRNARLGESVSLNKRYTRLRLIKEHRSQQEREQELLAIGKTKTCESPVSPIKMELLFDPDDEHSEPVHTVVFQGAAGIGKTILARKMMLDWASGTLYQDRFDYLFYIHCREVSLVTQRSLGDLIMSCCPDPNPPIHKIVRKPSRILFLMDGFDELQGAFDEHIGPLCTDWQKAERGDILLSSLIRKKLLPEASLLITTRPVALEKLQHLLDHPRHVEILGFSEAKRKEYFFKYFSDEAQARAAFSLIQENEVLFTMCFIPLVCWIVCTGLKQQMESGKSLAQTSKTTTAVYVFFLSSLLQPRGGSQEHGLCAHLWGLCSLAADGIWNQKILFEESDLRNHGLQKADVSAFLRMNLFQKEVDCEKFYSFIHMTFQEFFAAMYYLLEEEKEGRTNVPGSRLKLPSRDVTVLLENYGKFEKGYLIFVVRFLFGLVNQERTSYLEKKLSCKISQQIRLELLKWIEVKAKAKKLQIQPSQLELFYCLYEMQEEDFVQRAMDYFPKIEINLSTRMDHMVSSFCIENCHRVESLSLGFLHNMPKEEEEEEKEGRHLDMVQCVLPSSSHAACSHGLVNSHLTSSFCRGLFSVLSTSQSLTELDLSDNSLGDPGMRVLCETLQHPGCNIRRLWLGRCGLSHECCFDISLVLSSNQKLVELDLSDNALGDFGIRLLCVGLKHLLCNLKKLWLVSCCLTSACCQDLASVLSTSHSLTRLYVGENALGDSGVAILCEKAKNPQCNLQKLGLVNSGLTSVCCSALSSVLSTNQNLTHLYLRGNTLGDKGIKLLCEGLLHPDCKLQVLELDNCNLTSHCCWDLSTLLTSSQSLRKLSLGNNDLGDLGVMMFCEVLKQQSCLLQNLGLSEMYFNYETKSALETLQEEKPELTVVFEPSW
Structure (SMILES),"IC50 [1, 4] [nM]","IC50 [3, 7] [nM]",other results
"C[C@@H]1C[C@@H](NC(=O)C2(c3ccc(C(F)(F)F)cc3F)CC2)[C@H]2CC[C@@H]1N2c1nnn[nH]1 [84A*, 1-(2-fluoro-4-(trifluoromethyl)phenyl)-N-((1R,2R,4R,5S)-4-methyl-8-(1H-tetrazol-5-yl)-8-azabicyclo[3.2.1]octan-2-yl)cyclopropane-1-carboxamide]",< 1000,–,"IC50 [2, 5]: < 1000 nM; IC50 [3, 6]: < 10 nM"
"C[C@@H]1C[C@@H](NC(=O)C2(c3ccc(C4CC4)c(F)c3O)CC2)[C@H]2CC[C@@H]1N2c1nnn[nH]1 [83A*, 1-(4-cyclopropy1-3-fluoro-2-hydroxyphenyl)-N-((1R,2R,4R,5S)-4-methy1-8-(1H-tetrazol-5-yl)-8-azabicyclo[3.2.1]octan-2-yl)cyclopropane-1-carboxamide]",< 1000,–,"IC50 [2, 5]: < 1000 nM; IC50 [3, 6]: < 10 nM"
"O=C(Nc1cccc(-c2ccccc2)c1)C1(c2ccc(Cl)cc2)CC1 [Comparative Example D, N-([1,1′-biphenyl]-3-yl)-1-(4-chlorophenyl)cyclopropane-1-carboxamide, reference compound]",–,–,IC50 ([1]; read-out: SPA IC50): 320000 nM; IC50 ([2]; read-out: hWB IC50): > 50000 nM
"C[C@@H]1C[C@H]2CC[C@@H]([C@H](NC(=O)C3(c4ccc(C(F)(F)F)cc4)CC3)C1)N2c1nnn[nH]1 [104C*, N-((1S,2R,4S,6R)-4-methyl-9-(1H-tetrazol-5-yl)-9-azabicyclo[4.2.1]nonan-2-yl)-1-(4-(trifluoromethyl)phenyl)cyclopropane-1-carboxamide]",< 1000,–,"IC50 [2, 5]: < 1000 nM"
"Cc1ccc(C2(C(=O)N[C@@H]3C[C@H](C)CCN(c4nnn[nH]4)C3)CC2)cc1 (single isomer, unassigned) [71A*]",< 1000,10 to 100,–
"C[C@@H]1C[C@@H](NC(=O)C2(c3ccc(C4CC4(F)F)cc3)CC2)[C@H]2CC[C@@H]1N2c1nnn[nH]1 (single isomer, unassigned) [37A*]",< 1000,–,"IC50 [2, 5]: 1000 to 2000 nM"
"O=C(N[C@@H]1C[C@@H](C(F)(F)F)[C@@H]2CC[C@H]1N2c1nnn[nH]1)C1(c2ccc(Cl)cc2)CC1 (single isomer, unassigned) [103A*]",–,–,"IC50 ([1]; SPA IC50, displacement of 3H-MCC950): < 1000 nM; IC50 [2, 5]: < 1000 nM"
"O=C(N[C@@H]1CCCCN(c2nnn[nH]2)C1)C1(c2ccc(Cl)cc2O)CC1 [Compound 52A, (R)-N-(1-(1H-tetrazol-5-yl)azepan-3-yl)-1-(4-chloro-2-hydroxyphenyl)cyclopropane-1-carboxamide]",< 1000,–,"IC50 ([1]; read-out: SPA IC50): 79 nM; IC50 [2, 8]: < 1000 nM; IC50 ([2]; read-out: hWB IC50): 260 nM"
"C[C@H]1CC[C@H](NC(=O)C2(c3ccc(Cl)cc3O)CC2)CN(c2nnn[nH]2)C1 (single isomer, unassigned) [90B*]",< 1000,10 to 100,–
"Cc1ccc(C2(C(=O)N[C@@H]3C[C@H](C)CCN(c4nnn[nH]4)C3)CC2)c(O)c1F (single isomer, unassigned) [22A*, 1-(3-fluoro-2-hydroxy-4-methylphenyl)-N-(5-methyl-1-(1H-tetrazol-5-yl)azepan-3-yl)cyclopropane-1-carboxamide]",–,< 10,"IC50 [2, 8]: < 1000 nM"
"C[C@H]1CCN(c2nnn[nH]2)C[C@@H](NC(=O)C2(c3ccc(OC(F)F)cc3O)CC2)C1 (single isomer, unassigned) [70D*]",< 1000,10 to 100,–
"CN(C(=O)C1(c2ccc(Cl)cc2)CC1)c1cccc(-c2nnn[nH]2)c1 [Comparative Example B2, N-(3-(1H-tetrazol-5-yl)phenyl)-1-(4-chlorophenyl)-N-methylcyclopropane-1-carboxamide, reference compound]",–,–,IC50 ([1]; read-out: SPA IC50): 200000 nM; IC50 ([2]; read-out: hWB IC50): > 50000 nM
"C[C@@H]1CCN(c2nnn[nH]2)C[C@H](NC(=O)C2(c3ccc(Cl)cc3Cl)CC2)C1 (single isomer, unassigned) [55A*]",< 1000,10 to 100,–
"C[C@@H]1CCN(c2nnn[nH]2)C[C@@H](NC(=O)C2(c3ccc(C(F)(F)F)c(F)c3O)CC2)C1 (single isomer, unassigned) [31B*, 1-(3-fluoro-2-hydroxy-4-(trifluoromethyl)phenyl)-N-(5-methyl-1-(1H-tetrazol-5-yl)azepan-3-yl)cyclopropane-1-carboxamide]",< 1000,10 to 100,–
"C[C@@H]1C[C@@H](NC(=O)C2(c3ccc(OC(F)F)cc3F)CC2)[C@H]2CC[C@@H]1N2c1nnn[nH]1 (stereo in doubt) [Compound 101A, 1-(4-(difluoromethoxy)-2-fluorophenyl)-N-(4-methyl-8-(1H-tetrazol-5-yl)-8-azabicyclo[3.2.1]octan-2-yl)cyclopropane-1-carboxamide]",< 1000,–,"IC50 [2, 5]: < 1000 nM"
"C[C@@H]1CCN(c2nnn[nH]2)C[C@@H](NC(=O)C2(c3ccc(OC(F)F)cc3O)CC2)C1 (single isomer, unassigned) [70B*]",< 1000,10 to 100,–
"C[C@@H]1CCN(c2nnn[nH]2)C[C@H](NC(=O)C2(c3ccc(OC(F)F)cc3O)CC2)C1 (single isomer, unassigned) [70A*]",< 1000,< 10,–

Structure (SMILES),"IC50 [1, 4] [nM]","IC50 [3, 7] [nM]",other results
"C[C@H]1C[C@@H](NC(=O)C2(c3ccc(C(F)F)cc3O)CC2)CN(c2nnn[nH]2)C1 [Compound 48A, 1-(4-(difluoromethyl)-2-hydroxyphenyl)-N-((3R,5S)-5-methyl-1-(1H-tetrazol-5-yl)piperidin-3-yl)cyclopropane-1-carboxamide]",< 1000,–,"IC50 [2, 8]: < 1000 nM"
"C[C@@H]1CCN(c2nnn[nH]2)C[C@H](NC(=O)C2(c3ccc(C4CC4)cc3)CC2)C1 (single isomer, unassigned) [2A*]",< 1000,10 to 100,–
"C[C@H]1C[C@@H]2CC[C@H]([C@H](NC(=O)C3(c4ccc(C(F)(F)F)cc4)CC3)C1)N2c1nnn[nH]1 [104A*, N-((1R,2R,4R,6S)-4-methyl-9-(1H-tetrazol-5-yl)-9-azabicyclo[4.2.1]nonan-2-yl)-1-(4-(trifluoromethyl)phenyl)cyclopropane-1-carboxamide]",< 1000,–,"IC50 [2, 5]: 2000 to 3000 nM"
"C[C@@H]1CCN(c2nnn[nH]2)C[C@H](NC(=O)C2(c3ccc(C(F)(F)F)c(OC(F)F)c3)CC2)C1 (single isomer, unassigned) [54A*]",< 1000,10 to 100,–
"C[C@@H]1C[C@H](NC(=O)C2(c3ccc(OC(F)F)cc3O)CC2)[C@H]2CC[C@@H]1N2c1nnn[nH]1 [43B*, N-((1R,2S,4R,5S)-4-methy1-8-(1H-tetrazol-5-yl)-8-azabicyclo[3.2.1]octan-2-yl)-1-(4-(difluoromethoxy)-2-hydroxyphenyl)cyclopropane-1-carboxamide]",< 1000,–,"IC50 [2, 8]: > 3000 nM"
"CC1(C)C[C@@H](NC(=O)C2(c3ccc(Cl)cc3O)CC2)CN(c2nnn[nH]2)C1 (single isomer, unassigned) [42A*]",< 1000,< 10,IC50 ([1]; read-out: SPA IC50): 47 nM; IC50 ([3]; read-out: PBMC IC50): 5.8 nM
"C[C@H]1C[C@@H](NC(=O)C2(c3ccc(OC(F)F)cc3)CC2)[C@H]2CC[C@@H]1N2c1nnn[nH]1 (single isomer, unassigned) [35E*]",1000 to 10000,–,"IC50 [2, 8]: > 3000 nM"
"O=C(N[C@@H]1CCN(c2nnn[nH]2)C1)C1(c2ccc(Cl)cc2)CC1 (single isomer, unassigned) [Comparative Example A*, reference compound]",–,–,IC50 ([1]; read-out: SPA IC50): 420000 nM; IC50 ([2]; read-out: hWB IC50): > 50000 nM
"O=C(NC1CC(C(F)(F)F)CCN(c2nnn[nH]2)C1)C1(c2ccc(Cl)cc2)CC1 (racemic) [Rac-1, 1-(4-chlorophenyl)-N-[1-(1H-1,2,3,4-tetrazol-5-yl)-5-(trifluoromethyl)azepan-3-yl]cyclopropane-1-carboxamide]",< 1000,100 to 500,–
"COc1cc(F)c(C2(C(=O)N[C@@H]3C[C@@H](C)[C@@H]4CC[C@H]3N4c3nnn[nH]3)CC2)c(F)c1 (single isomer, unassigned) [102A*]",< 1000,–,"IC50 [2, 5]: < 1000 nM"
"C[C@@H]1CC(NC(=O)C2(c3ccc(OC(F)F)cc3O)CC2)[C@H]2CC[C@@H]1N2c1nnn[nH]1 (single isomer, unassigned) [43A*]",< 1000,–,"IC50 [2, 5]: < 1000 nM"
"C[C@@H]1CCN(c2nnn[nH]2)C[C@H](NC(=O)C2(c3ccc(C(F)F)cc3O)CC2)C1 (single isomer, unassigned) [30A*, 1-(4-(difluoromethyl)-2-hydroxyphenyl)-N-(5-methyl-1-(1H-tetrazol-5-yl)azepan-3-yl)cyclopropane-1-carboxamide]",< 1000,< 10,–
"C[C@@H]1CCN(c2nnn[nH]2)C[C@H](NC(=O)C2(c3ccc(Cl)c(F)c3F)CC2)C1 (single isomer, unassigned) [4A*, 1-(4-chloro-2,3-difluorophenyl)-N-(5-methyl-1-(1H-tetrazol-5-yl)azepan-3-yl)cyclopropane-1-carboxamide]",< 1000,10 to 100,–
"C[C@@H]1CCN(c2nnn[nH]2)C[C@H](NC(=O)C2(c3ccc(C4CC4)c(F)c3O)CC2)C1 (single isomer, unassigned) [32A*, 1-(4-cyclopropyl-3-fluoro-2-hydroxyphenyl)-N-(5-methyl-1-(1H-tetrazol-5-yl)azepan-3-yl)cyclopropane-1-carboxamide]",< 1000,< 10,–
"C[C@@H]1CCN(c2nnn[nH]2)C[C@H](NC(=O)C2(c3ccc(C(F)F)cc3)CC2)C1 (single isomer, unassigned) [5A*, 1-(4-(difluoromethyl)phenyl)-N-(5-methyl-1-(1H-tetrazol-5-yl)azepan-3-yl)cyclopropane-1-carboxamide]",< 1000,10 to 100,–
"C[C@@H]1CCN(c2nnn[nH]2)C[C@H](NC(=O)C2(c3ccc(Cl)c(F)c3)CC2)C1 (single isomer, unassigned) [65A*]",< 1000,10 to 100,–

# From patent US20260007684A1, “AMIDE DERIVATIVES FOR INHIBITING NLRP3 AND USES THEREOF” (Ventus Therapeutics U.S., Inc., priority 2023, published 2026)
